# US8778871B2 (Takeda Pharmaceutical Company Limited, priority 2004, dated 2014)
# Non-standard residues stand in square brackets, D forms with d. Residues, ends and D or L forms follow the SMILES beside them. No end group written: not given here. *: point of attachment. Phe(3-Cl) = N[C@@H](Cc1cccc(Cl)c1)C(=O)O; 1Nal = N[C@@H](Cc1cccc2ccccc12)C(=O)O; Arg(Me) = CNC(=N)NCCC[C@H](N)C(=O)O; Fmoc = O=C(OCC1c2ccccc2-c2ccccc21)*; 4Pal = N[C@@H](Cc1ccncc1)C(=O)O; Cha = N[C@@H](CC1CCCCC1)C(=O)O; azaGly = NNC(=O)O
# Target: T1, hOT7T175 (Homo sapiens, UniProt Q969F8, L364H)
# T1 construct: expressed in transfected cells
# Assay: Intracellular Ca ion level-increasing activity using FLIPR (180 seconds; specific activity to Metastin (1-54))
# Format: cell-based
# Settings: hOT7T175/CHO, relative to Metastin (1-54) = 1
# T1 sequence (Q969F8 whole entry L364H): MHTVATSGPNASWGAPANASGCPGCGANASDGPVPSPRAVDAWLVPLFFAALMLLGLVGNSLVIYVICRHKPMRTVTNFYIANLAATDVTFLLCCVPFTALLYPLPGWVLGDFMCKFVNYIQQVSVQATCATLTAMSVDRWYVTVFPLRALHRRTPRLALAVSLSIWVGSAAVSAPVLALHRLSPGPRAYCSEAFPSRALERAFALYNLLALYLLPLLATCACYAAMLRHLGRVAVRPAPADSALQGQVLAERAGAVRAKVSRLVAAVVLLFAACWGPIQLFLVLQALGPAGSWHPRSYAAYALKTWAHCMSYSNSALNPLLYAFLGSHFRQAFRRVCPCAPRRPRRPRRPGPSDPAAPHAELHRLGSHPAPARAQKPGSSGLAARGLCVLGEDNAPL
row,Molecule,"Specific Act. (intracellular Ca ion level-increasing activity, specific activity to Metastin (1-54))"
1,"CNC(=N)NCCC[C@H](NC(=O)[C@H](CC(C)C)NC(=O)NNC(=O)[C@H](Cc1ccccc1)NC(=O)[C@H](CO)NC(=O)[C@H](CC(N)=O)NC(=O)[C@H](Cc1ccccc1)NC(=O)[C@H](CC(N)=O)NC(=O)[C@H](N)Cc1ccc(O)cc1)C(=O)N[C@@H](Cc1ccccc1)C(N)=O [Compound No. 244, D-Tyr-Asn-Phe-Asn-Ser-Phe-AzaGly-Leu-Arg(Me)-Phe-NH2] (H-[dY]NFNSF[azaGly]L[Arg(Me)]F-NH2)",1
2,CNC(=N)NCCC[C@H](NC(=O)[C@H](CC(C)C)NC(=O)CNC(=O)[C@H](Cc1ccccc1)NC(=O)[C@H](CO)NC(=O)[C@H](CC(N)=O)NC(=O)[C@@H](NC(=O)[C@H](CC(N)=O)NC(=O)[C@H](N)Cc1ccc(O)cc1)[C@@H](C)O)C(=O)N[C@@H](Cc1ccccc1)C(N)=O [Compound No. 205] (H-[dY]NTNSFGL[Arg(Me)]F-NH2),10
3,"CNC(=N)NCCC[C@H](NC(=O)[C@H](CC(C)C)NC(=O)CNC(=O)[C@H](CC1CCCCC1)NC(=O)[C@H](CO)NC(=O)[C@H](CC(N)=O)NC(=O)[C@H](CC1CCCCC1)NC(=O)[C@H](CC(N)=O)NC(=O)[C@H](N)Cc1ccc(O)cc1)C(=O)N[C@@H](Cc1c[nH]c2ccccc12)C(N)=O [Compound No. 182, D-Tyr-Asn-Cha-Asn-Ser-Cha-Gly-Leu-Arg(Me)-Trp-NH2] (H-[dY]N[Cha]NS[Cha]GL[Arg(Me)]W-NH2)",5
4,D-Tyr-Asn-Trp-Gln-Ser-Phe-Gly-Leu-Arg(Me)-Phe-NH2 ([dY]NWQSFGL[Arg(Me)]F-NH2) [Compound No. 209],½
5,CC(C)C[C@H](NC(=O)CNC(=O)[C@H](Cc1ccccc1)NC(=O)[C@H](CO)NC(=O)[C@H](CC(N)=O)NC(=O)[C@H](Cc1c[nH]c2ccccc12)NC(=O)[C@H](CC(N)=O)NC(=O)[C@@H](N)Cc1ccc(O)cc1)C(=O)N[C@@H](CCCNC(=N)N)C(=O)N[C@@H](Cc1ccc(N)cc1)C(N)=O [Compound No. 131],3
6,"CNC(=N)NCCC[C@H](NC(=O)[C@H](CC(C)C)NC(=O)NNC(=O)[C@H](Cc1ccccc1)NC(=O)[C@H](CO)NC(=O)[C@H](CC(N)=O)NC(=O)[C@@H](NC(=O)[C@H](CC(N)=O)NC(=O)[C@H](N)Cc1ccc(O)cc1)C(C)C)C(=O)N[C@@H](Cc1ccccc1)C(N)=O [Compound No. 234, D-Tyr-Asn-Val-Asn-Ser-Phe-AzaGly-Leu-Arg(Me)-Phe-NH2] (H-[dY]NVNSF[azaGly]L[Arg(Me)]F-NH2)",1
7,COc1ccc(C[C@H](NC(=O)[C@H](CCCNC(=N)N)NC(=O)[C@H](CC(C)C)NC(=O)CNC(=O)[C@H](Cc2ccccc2)NC(=O)[C@H](CO)NC(=O)[C@H](CC(N)=O)NC(=O)[C@H](Cc2c[nH]c3ccccc23)NC(=O)[C@H](CC(N)=O)NC(=O)[C@@H](N)Cc2ccc(O)cc2)C(N)=O)cc1 [Compound No. 18] (H-YNWNSFGLRY(Me)-NH2),1
8,CCNC(=N)NCCC[C@H](NC(=O)[C@H](CC(C)C)NC(=O)CNC(=O)[C@H](Cc1ccccc1)NC(=O)[C@H](CO)NC(=O)[C@H](CC(N)=O)NC(=O)[C@H](Cc1c[nH]c2ccccc12)NC(=O)[C@H](CC(N)=O)NC(=O)[C@H](N)Cc1ccc(O)cc1)C(=O)N[C@@H](Cc1ccccc1)C(N)=O [Compound No. 192],1
9,"CNC(=N)NCCC[C@H](NC(=O)[C@H](CC(C)C)NC(=O)NNC(=O)[C@H](Cc1ccccc1)NC(=O)[C@H](CO)NC(=O)[C@H](CC(N)=O)NC(=O)[C@@H](Cc1c[nH]c2ccccc12)NC(=O)[C@@H](CC(N)=O)NC(=O)[C@H](N)Cc1ccc(O)cc1)C(=O)N[C@@H](Cc1ccccc1)C(N)=O [Compound No. 238, D-Tyr-D-Asn-D-Trp-Asn-Ser-Phe-AzaGly-Leu-Arg(Me)-Phe-NH2]",1
10,CC(C)C[C@H](NC(=O)CNC(=O)[C@H](Cc1ccccc1)NC(=O)[C@H](CO)NC(=O)[C@H](CC(N)=O)NC(=O)[C@H](Cc1c[nH]c2ccccc12)NC(=O)[C@H](CC(N)=O)NC(=O)[C@@H](N)Cc1ccc(O)cc1)C(=O)N[C@@H](CCCNC(=N)N)C(=O)N[C@@H](Cc1c(F)c(F)c(F)c(F)c1F)C(N)=O [Compound No. 111],3
11,H-YNWNSFSLRF-NH2 [Compound No. 101],10
12,"CNC(=N)NCCC[C@H](NC(=O)[C@H](CC(C)C)NC(=O)NNC(=O)[C@H](Cc1ccccc1)NC(=O)[C@H](CO)NC(=O)[C@H](CC(N)=O)NC(=O)[C@H](Cc1c[nH]c2ccccc12)NC(=O)[C@@H](CC(N)=O)NC(=O)[C@H](N)Cc1ccc(O)cc1)C(=O)N[C@@H](Cc1ccccc1)C(N)=O [Compound No. 237, D-Tyr-D-Asn-Trp-Asn-Ser-Phe-AzaGly-Leu-Arg(Me)-Phe-NH2]",3
13,"CNC(=N)NCCC[C@H](NC(=O)[C@H](CC(C)C)NC(=O)CNC(=O)[C@H](Cc1ccccc1)NC(=O)[C@H](CO)NC(=O)[C@H](CC(N)=O)NC(=O)[C@@H](Cc1c[nH]c2ccccc12)NC(=O)[C@H](N)Cc1ccc(O)cc1)C(=O)N[C@@H](Cc1ccccc1)C(N)=O [Compound No. 224, D-Tyr-D-Trp-Asn-Ser-Phe-Gly-Leu-Arg(Me)-Phe-NH2] (H-[dY][dW]NSFGL[Arg(Me)]F-NH2)",2
14,"CNC(=N)NCCC[C@H](NC(=O)[C@H](CC(C)C)NC(=O)NNC(=O)[C@H](Cc1ccccc1)NC(=O)[C@H](CO)NC(=O)[C@H](CC(N)=O)NC(=O)[C@H](Cc1cccc2ccccc12)NC(=O)[C@H](CC(N)=O)NC(=O)[C@H](N)Cc1ccc(O)cc1)C(=O)N[C@@H](Cc1ccccc1)C(N)=O [Compound No. 245, D-Tyr-Asn-Nal(1)-Asn-Ser-Phe-AzaGly-Leu-Arg(Me)-Phe-NH2] (H-[dY]N[1Nal]NSF[azaGly]L[Arg(Me)]F-NH2)",1
15,CC(C)C[C@H](NC(=O)CNC(=O)[C@H](Cc1ccccc1)NC(=O)[C@H](CO)NC(=O)[C@H](CC(N)=O)NC(=O)[C@H](Cc1c[nH]c2ccccc12)NC(=O)OCC1c2ccccc2-c2ccccc21)C(=O)N[C@@H](CCCNC(=N)N)C(=O)N[C@@H](Cc1ccccc1)C(N)=O [Compound No. 54] (Fmoc-WNSFGLRF-NH2),5
16,CC(C)C[C@H](NC(=O)CNC(=O)[C@H](Cc1ccccc1)NC(=O)[C@H](CO)NC(=O)[C@H](CC(N)=O)NC(=O)[C@H](Cc1c[nH]c2ccccc12)NC(=O)[C@H](CC(N)=O)NC(=O)[C@@H](N)Cc1ccc(O)cc1)C(=O)N[C@@H](CCCNC(=N)N)C(=O)N[C@@H](Cc1cccc(F)c1)C(N)=O [Compound No. 197],10
17,CNC(=N)NCCC[C@H](NC(=O)[C@H](CC(C)C)NC(=O)CNC(=O)[C@H](Cc1ccccc1)NC(=O)[C@H](CO)NC(=O)[C@H](CC(N)=O)NC(=O)[C@H](Cc1c[nH]c2ccccc12)NC(=O)[C@H](N)CC(N)=O)C(=O)N[C@@H](Cc1ccccc1)C(N)=O [Compound No. 216] (H-[dN]WNSFGL[Arg(Me)]F-NH2),1
18,"CC(C)C[C@H](NC(=O)CNC(=O)[C@H](Cc1ccccc1)NC(=O)[C@H](CO)NC(=O)[C@H](CC(N)=O)NC(=O)[C@H](Cc1c[nH]c2ccccc12)NC(=O)[C@H](CC(N)=O)NC(=O)[C@@H](N)Cc1ccc(O)cc1)C(=O)N[C@@H](CCCNC(=N)N)C(=O)N[C@@H](Cc1ccccc1)C(N)=O [Compound No. 3, reference compound]",10
19,CNC(=N)NCCC[C@H](NC(=O)[C@H](CC(C)C)NC(=O)CNC(=O)[C@H](Cc1ccccc1)NC(=O)[C@H](CO)NC(=O)[C@H](CC(N)=O)NC(=O)[C@@H](NC(=O)[C@H](CC(N)=O)NC(=O)[C@H](N)Cc1ccc(O)cc1)C(C)C)C(=O)N[C@@H](Cc1ccccc1)C(N)=O [Compound No. 229] (H-[dY]NVNSFGL[Arg(Me)]F-NH2),1
20,H-YNWNLFGLRF-NH2 [Compound No. 24],1
21,CC(C)C[C@H](NC(=O)CNC(=O)[C@H](Cc1ccccc1)NC(=O)[C@H](CO)NC(=O)[C@H](CC(N)=O)NC(=O)[C@H](Cc1c[nH]c2ccccc12)NC(=O)[C@H](CC(N)=O)NC(=O)[C@@H](N)Cc1ccc(O)cc1)C(=O)N[C@@H](CCCNC(=N)N)C(=O)N[C@@H](Cc1ccncc1)C(N)=O [Compound No. 17] (H-YNWNSFGLR[4Pal]-NH2),5
22,"CNC(=N)NCCC[C@H](NC(=O)[C@H](CC(C)C)NC(=O)CNC(=O)[C@H](CC1CCCCC1)NC(=O)[C@H](CO)NC(=O)[C@H](CC(N)=O)NC(=O)[C@H](Cc1c[nH]c2ccccc12)NC(=O)[C@H](CC(N)=O)NC(=O)[C@H](N)Cc1ccc(O)cc1)C(=O)N[C@@H](Cc1ccccc1)C(N)=O [Compound No. 203, D-Tyr-Asn-Trp-Asn-Ser-Cha-Gly-Leu-Arg(Me)-Phe-NH2] (H-[dY]NWNS[Cha]GL[Arg(Me)]F-NH2)",10
23,"CNC(=N)NCCC[C@H](NC(=O)[C@H](CC(C)C)NC(=O)NNC(=O)[C@H](Cc1ccccc1)NC(=O)[C@H](CO)NC(=O)[C@H](CC(N)=O)NC(=O)[C@H](Cc1cccc(Cl)c1)NC(=O)[C@H](CC(N)=O)NC(=O)[C@H](N)Cc1ccc(O)cc1)C(=O)N[C@@H](Cc1ccccc1)C(N)=O [Compound No. 248, D-Tyr-Asn-Phe(3Cl)-Asn-Ser-Phe-AzaGly-Leu-Arg(Me)-Phe-NH2] (H-[dY]N[Phe(3-Cl)]NSF[azaGly]L[Arg(Me)]F-NH2)",2
24,CCCNC(=N)NCCC[C@H](NC(=O)[C@H](CC(C)C)NC(=O)CNC(=O)[C@H](Cc1ccccc1)NC(=O)[C@H](CO)NC(=O)[C@H](CC(N)=O)NC(=O)[C@H](Cc1c[nH]c2ccccc12)NC(=O)[C@H](CC(N)=O)NC(=O)[C@H](N)Cc1ccc(O)cc1)C(=O)N[C@@H](Cc1ccccc1)C(N)=O [Compound No. 193],½
